In assay [1] the target is T1, Adenosylhomocysteinase (Homo sapiens, UniProt P23526). Kind of assay: Affinity and reactivity of an affinity-labeling reagent, was assessed from the inhibitory constant value.
Target sequence in this assay (P23526 whole entry): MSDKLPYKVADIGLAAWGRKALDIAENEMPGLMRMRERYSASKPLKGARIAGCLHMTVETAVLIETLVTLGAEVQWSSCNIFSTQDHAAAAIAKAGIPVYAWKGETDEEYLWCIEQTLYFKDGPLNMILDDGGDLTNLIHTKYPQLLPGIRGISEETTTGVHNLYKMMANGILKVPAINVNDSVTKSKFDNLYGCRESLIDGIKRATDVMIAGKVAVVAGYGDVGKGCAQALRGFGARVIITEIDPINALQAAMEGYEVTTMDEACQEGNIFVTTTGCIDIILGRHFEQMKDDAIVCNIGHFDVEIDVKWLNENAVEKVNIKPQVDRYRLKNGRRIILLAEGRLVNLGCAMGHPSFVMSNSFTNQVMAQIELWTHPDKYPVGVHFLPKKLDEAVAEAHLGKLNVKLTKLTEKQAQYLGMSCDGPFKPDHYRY
Assay [2] deals with T1, Adenosylhomocysteinase. Kind of assay: Concentration with maximum apparent affinity (Kapp) for S-adenosyl-l-homocysteine (SAH) hydrolase was reported.
Target sequence in this assay (P23526 2-432 limits assumed): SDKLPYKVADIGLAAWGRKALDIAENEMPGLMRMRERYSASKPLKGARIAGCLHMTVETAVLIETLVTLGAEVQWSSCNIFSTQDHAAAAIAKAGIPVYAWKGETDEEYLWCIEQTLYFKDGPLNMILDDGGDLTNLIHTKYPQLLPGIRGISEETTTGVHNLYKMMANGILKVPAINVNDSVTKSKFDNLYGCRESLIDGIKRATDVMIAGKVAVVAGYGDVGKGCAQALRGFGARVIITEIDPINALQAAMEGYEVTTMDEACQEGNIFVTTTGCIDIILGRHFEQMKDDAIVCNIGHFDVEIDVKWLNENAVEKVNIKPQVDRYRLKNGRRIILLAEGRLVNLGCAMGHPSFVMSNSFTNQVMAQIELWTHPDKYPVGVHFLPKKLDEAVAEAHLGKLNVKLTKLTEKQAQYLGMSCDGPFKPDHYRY
In assay [3] the target is T1, Adenosylhomocysteinase. Kind of assay: Affinity and reactivity of an affinity-labeling reagent, was assessed from the inactivation constant value.
Target sequence in this assay (P23526 2-432 limits assumed): as above

Usually Ki stands for the dissociation constant of the complex between target and ligand, obtained from inhibition or displacement. Low readings indicate higher affinity, high ones lower affinity. The compound `Nc1ncnc2c1ncn2C[C@H](O)[C@H](O)C=O` came in with a Ki in assay [1] of 8.8 µM. Also, in assay [2], the K app was found to be 100 µM. This compound also gave a K inact in assay [3] of 0.09 min⁻¹.

These data come from ChEMBL document CHEMBL1131985, “9-[(2'S,3'S)-3'-formyl-2',3'-dihydroxypropyl]adenine: a facile affinity-labeling probe of human S-adenosyl-L-homocysteine hydrolase” (Bioorg Med Chem Lett, 1999).
